Data as given in patent US20080125435A1, “1-(Het)aryl-3-[hetaryl-piperidin-4-yl]-thioureas as modulators of the EP2 receptor” (priority 2006, published 2008).

Legend:
[1] = tested on: cumulus-ovum complexes (cumulus expansion); assay: Cumulus expansion test in vitro; type: cell-based, mice; conditions: competing with natural EP2 receptor agonist PGE2
Procedure: In immature female mice (strain: CD1 (ICR) von Charles River), folliculogenesis is induced at an age of 14-18 days by a single administration (intraperitoneal) of 10 I.U. of PMSG (Pregnant Mare Serum Gonadotropin; Sigma G-4877, Lot 68H0909). 47-50 hours after the injection, the ovaries are removed and the cumulus-ovum complexes removed. At this stage, the cumulus complex is not yet expanded.
The cumulus-ovum complexes are now incubated for 20-24 hours with prostaglandin E2 (PGE2) (1 μM), vehicle control (ethanol) or test substances. Medium: alpha-MEM medium with 0.1 mM IBMX, pyruvate (0.23 mM) glutamine (2 mM), pen/strep 100 IU/ml pen. and 100 μg/ml strep.) and HSA (8 mg/ml)). The cumulus expansion is then assessed by classification into four stages (after Vanderhyden et al. Dev Biol. 1990 August; 140(2):307-317).

[2] = target: T1, EP2 subtype of the human PGE2 receptor (Homo sapiens, UniProt P43116); assay: cAMP antagonism test (test for antagonism in the presence of PGE2); type: cell-based; conditions: in presence of agonist PGE2
T1 construct: host or cells: cells in a cell culture plate
Text: (§1) The binding of PGE2 to the EP2 subtype of the human PGE2 receptor induces the activation of membrane adenylate cyclases and leads to the formation of cAMP. In the presence of the phosphodiesterase inhibitor IBMX, the cAMP accumulated through this stimulation and released by cell lysis is used in a competitive detection process. In this test, the cAMP in the lysate competes with cAMP-XL665 for the binding of an Eu cryptate-labeled anti-cAMP antibody. Here in the absence of cellular cAMP a maximal signal is produced, which is due to the coupling of this antibody to the cAMP-XL665 molecule. As a result, after excitation at 337 nm, a long-lasting emission signal at 665 nm (and at 620 nm) based on FRET (fluorescence resonance energy transfer) is produced. Both signals are measured in a suitable measuring instrument with time delay, i.e. after the background fluorescence has died away.
(§2) The substance solutions (0.75 μl) which contain 30% DMSO are placed in a test plate and are dissolved in 16 μl of a KRSB+IBMX stimulation solution (1× cancer Ringer bicarbonate buffer; Sigma-Aldrich # K-4002; including 750 μM 3-isobutyl-1-methylxanthine Sigma-Aldrich # 1-7018), then 15 μl of this are transferred into a media-free cell culture plate which has been washed with KRSB shortly beforehand.
After a 30-minute preincubation at room temperature (RT), 5 μl of a 4×PGE2 solution (11 nM) are added and incubated in the presence of the agonist for a further 60 mins at RT (volume: ˜20 μl), before the reaction is then stopped by addition of 5 μl of lysis buffer and the mixture is incubated for a further 20 mins at RT (volume: ˜25 μl). The cell lysate is then transferred onto an assay plate and assayed in accordance with the manufacturer's instructions (cyclic AMP kit Cisbio International # 62AMPPEC).

[3] = target: T1, EP2 subtype of the human PGE2 receptor; assay: cellular agonism test (cAMP); type: cell-based
Text: as §1
as §2, with “μl)” for “μl) which contain 30% DMSO are”, “and 30% DMSO” for “and”, “beforehand. […]” for “beforehand.”

T1 sequence (P43116 whole entry): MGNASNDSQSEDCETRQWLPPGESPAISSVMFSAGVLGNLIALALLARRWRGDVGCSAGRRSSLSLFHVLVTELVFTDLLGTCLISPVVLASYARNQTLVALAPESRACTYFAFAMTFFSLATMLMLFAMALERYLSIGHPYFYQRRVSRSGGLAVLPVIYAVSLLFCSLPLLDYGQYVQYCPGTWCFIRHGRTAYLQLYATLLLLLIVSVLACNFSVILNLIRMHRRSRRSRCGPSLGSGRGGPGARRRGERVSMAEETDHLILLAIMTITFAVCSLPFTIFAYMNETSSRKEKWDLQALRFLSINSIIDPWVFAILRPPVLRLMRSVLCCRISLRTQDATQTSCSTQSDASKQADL

IC50 [2] [µM] | activity in the cellular agonism test [3] | SMILES | suppression of the expansion of the cumulus ([1]; at a concentration of 100-200 μM) | suppression of cumulus expansion ([1]; at a 10 times lower concentration than AH 6809 (100-200 μM)) [%]
 |  | CC(C)Oc1ccc2c(=O)c3cc(C(=O)O)ccc3oc2c1 [AH 6809, reference compound] | ca. 30% | 
3.8 | no inhibition | S=C(Nc1ccccc1Br)NC1CCN(c2ccnc3cc(Cl)ccc23)CC1 [Example 8, 1-(2-bromo-phenyl)-3-(1-(7-chloro-quinolin-4-yl)-piperidin-4-yl)-thiourea] |  | 20
3.4 |  | CSc1ccccc1NC(=S)NC1CCN(c2ccnc3cc(Cl)ccc23)CC1 [Example 14, 1-(1-(7-chloro-quinolin-4-yl)-piperidin-4-yl)-3-(2-methylsulfanyl-phenyl)-thiourea] |  | 
2.7 |  | CSc1ccc(NC(=S)NC2CCN(c3ccnc4cc(Cl)ccc34)CC2)cc1 [Example 1, 1-[1-(7-chloro-quinolin-4-yl)-piperidin-4-yl]-3-(4-methylsulfanyl-phenyl)-thiourea] |  | 
